# Results reported in patent US20230137943A1, “PHOTOPROXIMITY PROFILING OF PROTEIN-PROTEIN INTERACTIONS IN CELLS” (The University of Chicago, priority 2019, published 2023).
# Target: T1, SNAP-FLAG/α-FLAG antibody complex (Homo sapiens, UniProt P16455, A127T/A154D/C150Q/C62A/E30R/G131K/G132T/G153L/K125A/K32I/L33F/M134L/N157G/Q115S/Q116H/R128A/R135S/S151G/S152D/S159E)
# T1 construct: host or cells: clarified lysate of HEK293T cells transiently or stably expressing SnapFlag
# T1 sequence (P16455 1-182 E30R/K32I/L33F/C62A/Q115S/Q116H/K125A/A127T/R128A/G131K/G132T/M134L/R135S/C150Q/S151G/S152D/G153L/A154D/N157G/S159E limits assumed): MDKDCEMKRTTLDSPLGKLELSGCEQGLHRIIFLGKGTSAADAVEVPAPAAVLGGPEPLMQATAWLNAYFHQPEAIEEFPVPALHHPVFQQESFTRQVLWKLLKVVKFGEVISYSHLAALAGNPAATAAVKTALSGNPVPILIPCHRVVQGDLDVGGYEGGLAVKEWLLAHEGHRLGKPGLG
# Assay: Proximity-labeling assay in cell lysate (anti-biotin / anti-mouse Western blot)
# Type: biochemical
# Details: 500 nM probe; for Proximal labeling of heavy and light chains upon irradiation: 365 nm light 10 minutes (FIG. 4C, FIG. 12B)
# Method: Proximity-labeling assays: Clarified cell lysate from HEK293T cells either transiently (see FIG. 4B) or stably (see FIG. 4C) expressing SNAP-Tag (NEB #N9183S; New England Biolabs, Ipswich, Mass., United States of America) or SnapFlag was normalized to 1 mg/mL and 250 μL aliquots incubated in a microcentrifuge tube with either 500 nM of PP1. PP2, or DMSO for 1 hour at 37° C. Washed anti-FLAG M2 affinity gel, 40 μL of a 50% slurry, was transferred to each reaction in 750 μL of DPBS and the resultant suspension left to rotate overnight at 4° C. (Sigma #A2220; Sigma-Aldrich, St. Louis, Mo., United States of America). Samples were then spun down at 4000×g, supernatant aspirated, and the resin washed with 1M urea in DPBS (1 mL×8) followed by DPBS (1 mL). After being resuspended in 100 μL of DPBS, the samples were placed on ice where they were irradiated with 365 nm light for 10 minutes (SPECTROLINKER™ XL-1500a UV crosslinker, Spectronics Corporation, Westbury, N.Y., United States of America). Once irradiated, the beads were washed with 100 mM pH 3.5 glycine buffer (100 μL×2) and DPBS (1 mL). To elute the remaining SNAP-FLAG and resin-bound FLAG-antibody the beads were boiled for 5 minutes at 95° C. in 20 μL 4×-loading buffer containing 8% SDS and 400 mM DTT. After which, 60 μL of DPBS was added and the suspension boiled at 95° C. for an additional 5 minutes. The samples were then run on SDS-PAGE gel and transferred to nitrocellulose where they were stained with anti-mouse IR dye (Li-cor #926-68072; Li-cor Biosciences, Lincoln, Nebr., United States of America) and streptavidin IR dye (Li-cor #926-32230; Li-cor Biosciences, Lincoln, Nebr., United States of America). Bands corresponding to biotinylated proteins and the FLAG antibody were visualized using an Odyssey infrared imager (Li-cor Biosciences, Lincoln, Nebr., United States of America).
# To study if proximal protein interactors could be labeled in response to the dual photoactivation of PP1 in vitro, the interaction between SNAP-FLAG protein and an α-FLAG monoclonal antibody (mAb) was examined in cell lysate. In this assay, proximal biotinylation of both heavy and light chains of the antibody was expected, as well as self-labeling of the SNAP-FLAG protein, under conditions where the protein complex is formed and the PP1 probe is photoactivated. To test this hypothesis in the presence and absence of the protein-protein complex, SNAP protein that contained or lacked the FLAG epitope was treated with PP1 probe, followed by incubation with α-FLAG mAb, bead-based pulldown of the complexes, and subsequent photoactivation. […] The requirement for photoactivation of PP1, as well as a related probe PP2 (see FIG. 6) was tested by forming the SNAP-FLAG/α-FLAG complexes, and then comparing protein biotinylation with or without irradiation.
# To study if proximal protein interactors could be labeled in response to the dual photoactivation of AC1 (see FIG. 12A) in vitro, the interaction between SNAP-FLAG protein and an α-FLAG monoclonal antibody (mAb) was examined in cell lysate. Briefly, 250 μL aliquots of cell lysate (HEK293T, SNAP-Flag) was incubated in a microcentrifuge tube with either 500 nM of photoprobe, or DMSO for 1 hour at 37° C. Washed anti-FLAG M2 affinity gel, 40 μL of a 50% slurry, was transferred to each reaction in 750 μL of DPBS and the resultant suspension left to rotate overnight at 4° C. (Sigma #A2220; Sigma-Aldrich, St. Louis, Mo., United States of America). Samples were then spun down at 4000×g, supernatant aspirated, and the resin washed with 1M urea in DPBS (1 mL×8) followed by DPBS (1 mL). After being resuspended in 250 μL of DPBS, the +UV samples were placed on ice where they were irradiated with 365 nm light for 10 minutes (SPECTROLINKER™ XL-1500a UV crosslinker, Spectronics Corporation, Westbury, N.Y., United States of America). Once irradiated, the beads were washed with 1 M Urea (1 mL×2) and DPBS (1 mL×2). […]
Compound,Proximal labeling of heavy and light chains upon irradiation,"Biotinylation of α-FLAG antibody chains with SNAP-FLAG protein (FLAG epitope present, 365 nm 10 minutes (FIG. 4B))","Biotinylation with SNAP protein that lacked the FLAG sequence (no FLAG epitope, 365 nm 10 minutes (FIG. 4B))",Proximal labeling of heavy/light chain without irradiation (not exposed to 365 nm light (FIG. 4C))
COc1cc(C(C)OC(=O)NC(CCCCNC(=O)CCC2(C)N=N2)C(=O)NCCCCCNC(=O)CCCCC2SCC3NC(=O)NC32)c([N+](=O)[O-])cc1OCCCC(=O)NCc1ccc(COc2nc(N)nc3[nH]cnc23)cc1 (centres unmarked) [PP1],a discrete biotinylated band was formed on both heavy and light chains,robust biotinylation of both heavy and light chain fragments,no protein-biotinylation,No proximal labeling
COc1cc(COC(=O)NC(CCCCNC(=O)CCC2(C)N=N2)C(=O)NCCCCC2SCC3NC(=O)NC32)c([N+](=O)[O-])cc1OCCCC(=O)NCc1ccc(COc2nc(N)nc3[nH]cnc23)cc1 (centres unmarked) [AC1],labels a proximal protein binding partner,,,
